This data set concerns CCRIS mutagenicity, Ames/micronucleus/aberration tests. The data set is described as follows: CCRIS mutagenicity studies.
The mark [1] stands for this setting: Test System: AMES SALMONELLA TYPHIMURIUM, Strain/Indicator: TA98, Metabolic Activation: NONE, Method: STANDARD PLATE.
Where [2] appears, read: Test System: AMES SALMONELLA TYPHIMURIUM, Strain/Indicator: TA98, Metabolic Activation: RAT, LIVER, S-9, AROCLOR 1254, Method: STANDARD PLATE.
[3] abbreviates: Test System: AMES SALMONELLA TYPHIMURIUM, Strain/Indicator: TA100, Metabolic Activation: NONE, Method: STANDARD PLATE.
Setting [4] is: Test System: AMES SALMONELLA TYPHIMURIUM, Strain/Indicator: TA100, Metabolic Activation: RAT, LIVER, S-9, AROCLOR 1254, Method: STANDARD PLATE.
Setting [5] is: Test System: AMES SALMONELLA TYPHIMURIUM, Strain/Indicator: TA1535, Metabolic Activation: NONE, Method: STANDARD PLATE.
Setting [6] is: Test System: AMES SALMONELLA TYPHIMURIUM, Strain/Indicator: TA1537, Metabolic Activation: NONE, Method: STANDARD PLATE.

Activity calls are given as the source filed them. The rule behind the calls is not given here.

In the case of `NC(=O)NCC(=O)O`, the mutagenic call is “inactive; negative” (Test System: AMES SALMONELLA TYPHIMURIUM, Strain/Indicator: TA97, Metabolic Activation: NONE, Method: STANDARD PLATE); “inactive; negative” (Test System: AMES SALMONELLA TYPHIMURIUM, Strain/Indicator: TA97, Metabolic Activation: RAT, LIVER, S-9, AROCLOR 1254, Method: STANDARD PLATE); “inactive; negative” under setting [1]; “inactive; negative” under setting [2]; “inactive; negative” under setting [3]; “inactive; negative” under setting [4]. Moreover, the mutagenic call runs as follows: (Test System: AMES SALMONELLA TYPHIMURIUM, Strain/Indicator: TA102, Metabolic Activation: NONE, Method: STANDARD PLATE) “inactive; negative”; (Test System: AMES SALMONELLA TYPHIMURIUM, Strain/Indicator: TA102, Metabolic Activation: RAT, LIVER, S-9, AROCLOR 1254, Method: STANDARD PLATE) “inactive; negative”.

Take `CC(=O)O[C@@H]1[C@@H](O)[C@H](O[C@H]2[C@H](OC(=O)[C@H]3CC[C@@H]4[C@H](C3)O[C@@]3(C[C@H](OC(=O)/C=C/c5ccccc5)[C@H](C)CO3)[C@]43CO3)O[C@H](C)[C@@H](O)[C@@H]2OC(C)=O)O[C@H](C)[C@H]1O`: the mutagenic call by setting is: (Test System: AMES SALMONELLA TYPHIMURIUM, Strain/Indicator: TA98, Metabolic Activation: HAMSTER, LIVER, S-9, AROCLOR 1254, Method: STANDARD PLATE) “inactive; negative”; under setting [1], “inactive; negative”; under setting [2], “inactive; negative”; (Test System: AMES SALMONELLA TYPHIMURIUM, Strain/Indicator: TA100, Metabolic Activation: HAMSTER, LIVER, S-9, AROCLOR 1254, Method: STANDARD PLATE) “inactive; negative”; under setting [3], “inactive; negative”; under setting [4], “inactive; negative”. Besides, the mutagenic call (Test System: AMES SALMONELLA TYPHIMURIUM, Strain/Indicator: TA1535, Metabolic Activation: HAMSTER, LIVER, S-9, AROCLOR 1254, Method: STANDARD PLATE) was “inactive; negative”; the mutagenic call under setting [5] is “inactive; negative”; the mutagenic call (Test System: AMES SALMONELLA TYPHIMURIUM, Strain/Indicator: TA1535, Metabolic Activation: RAT, LIVER, S-9, AROCLOR 1254, Method: STANDARD PLATE) is “inactive; negative”; the mutagenic call (Test System: AMES SALMONELLA TYPHIMURIUM, Strain/Indicator: TA1537, Metabolic Activation: HAMSTER, LIVER, S-9, AROCLOR 1254, Method: STANDARD PLATE) was “inactive; negative”; the mutagenic call under setting [6] was “inactive; negative”; the mutagenic call (Test System: AMES SALMONELLA TYPHIMURIUM, Strain/Indicator: TA1537, Metabolic Activation: RAT, LIVER, S-9, AROCLOR 1254, Method: STANDARD PLATE) was “inactive; negative”.

As to `CNN`, the mutagenic call reads like this: (End Point: IN VITRO CHROMOSOMAL ABERRATIONS, Test System: CHL CELLS, Metabolic Activation: RAT, LIVER, S-9, SODIUM PHENOBARBITAL AND 5,6-BENZOFLAVONE) “active; positive (structural changes)”; (Test System: AMES SALMONELLA TYPHIMURIUM, Strain/Indicator: TA98, Metabolic Activation: NONE, Method: PREINCUBATION) “inactive; negative”; (Test System: AMES SALMONELLA TYPHIMURIUM, Strain/Indicator: TA98, Metabolic Activation: RAT LIVER S-9, PHENOBARBITAL AND BETA-NAPHTHOFLAVONE, Method: PREINCUBATION) “inactive; negative”; (Test System: AMES SALMONELLA TYPHIMURIUM, Strain/Indicator: TA100, Metabolic Activation: RAT LIVER S-9, PHENOBARBITAL AND BETA-NAPHTHOFLAVONE, Method: PREINCUBATION) “inactive; negative”; (Test System: AMES SALMONELLA TYPHIMURIUM, Strain/Indicator: TA102, Metabolic Activation: NONE, Method: PREINCUBATION) “active; positive”; (Test System: AMES SALMONELLA TYPHIMURIUM, Strain/Indicator: TA1535, Metabolic Activation: RAT LIVER S-9, PHENOBARBITAL AND BETA-NAPHTHOFLAVONE, Method: PREINCUBATION) “active; positive”. The mutagenic call was “inactive; negative” (Test System: AMES SALMONELLA TYPHIMURIUM, Strain/Indicator: TA1535, Metabolic Activation: RAT, LIVER, S-9, AROCLOR 1254, Method: PREINCUBATION); “inactive; negative” (Test System: AMES SALMONELLA TYPHIMURIUM, Strain/Indicator: TA1537, Metabolic Activation: NONE, Method: PREINCUBATION); “inactive; negative” (Test System: AMES SALMONELLA TYPHIMURIUM, Strain/Indicator: TA1537, Metabolic Activation: RAT LIVER S-9, PHENOBARBITAL AND BETA-NAPHTHOFLAVONE, Method: PREINCUBATION); “inactive; negative” (Test System: AMES SALMONELLA TYPHIMURIUM, Strain/Indicator: TA1537, Metabolic Activation: RAT, LIVER, S-9, AROCLOR 1254, Method: PREINCUBATION); “active; positive” (Test System: E. COLI, Strain/Indicator: WP2 UVRA, Metabolic Activation: NONE, Method: PREINCUBATION); “active; positive” (Test System: E.COLI, Strain/Indicator: WP2UVRA, Metabolic Activation: RAT LIVER S-9, PHENOBARBITAL AND BETA-NAPHTHOFLAVONE, Method: PREINCUBATION).

Consider `C=C[Si](C)(C)N[Si](C)(C)C=C`, for which the mutagenic call was “inactive; negative” (Test System: AMES SALMONELLA TYPHIMURIUM, Strain/Indicator: TA98, Metabolic Activation: HAMSTER, LIVER, S-9, AROCLOR 1254 (10%), Method: STANDARD PLATE); “inactive; negative” under setting [1]; “inactive; negative” (Test System: AMES SALMONELLA TYPHIMURIUM, Strain/Indicator: TA98, Metabolic Activation: RAT, LIVER, S-9, AROCLOR 1254 (10%), Method: STANDARD PLATE); “inactive; negative” (Test System: AMES SALMONELLA TYPHIMURIUM, Strain/Indicator: TA100, Metabolic Activation: HAMSTER, LIVER, S-9, AROCLOR 1254 (10%), Method: STANDARD PLATE); “inactive; negative” under setting [3]; “inactive; negative” (Test System: AMES SALMONELLA TYPHIMURIUM, Strain/Indicator: TA100, Metabolic Activation: RAT, LIVER, S-9, AROCLOR 1254 (10%), Method: STANDARD PLATE). Also, the mutagenic call (Test System: AMES SALMONELLA TYPHIMURIUM, Strain/Indicator: TA1535, Metabolic Activation: HAMSTER, LIVER, S-9, AROCLOR 1254 (10%), Method: STANDARD PLATE) was “inactive; negative”; the mutagenic call under setting [5] is “inactive; negative”; the mutagenic call (Test System: AMES SALMONELLA TYPHIMURIUM, Strain/Indicator: TA1535, Metabolic Activation: RAT, LIVER, S-9, AROCLOR 1254 (10%), Method: STANDARD PLATE) is “inactive; negative”; the mutagenic call (Test System: AMES SALMONELLA TYPHIMURIUM, Strain/Indicator: TA1537, Metabolic Activation: HAMSTER, LIVER, S-9, AROCLOR 1254 (10%), Method: STANDARD PLATE) was “inactive; negative”; the mutagenic call under setting [6] is “inactive; negative”; the mutagenic call (Test System: AMES SALMONELLA TYPHIMURIUM, Strain/Indicator: TA1537, Metabolic Activation: RAT, LIVER, S-9, AROCLOR 1254 (10%), Method: STANDARD PLATE) is “inactive; negative”. Besides, the mutagenic call (Test System: AMES SALMONELLA TYPHIMURIUM, Strain/Indicator: TA1538, Metabolic Activation: HAMSTER, LIVER, S-9, AROCLOR 1254 (10%), Method: STANDARD PLATE) is “inactive; negative”; the mutagenic call (Test System: AMES SALMONELLA TYPHIMURIUM, Strain/Indicator: TA1538, Metabolic Activation: NONE, Method: STANDARD PLATE) is “inactive; negative”; the mutagenic call (Test System: AMES SALMONELLA TYPHIMURIUM, Strain/Indicator: TA1538, Metabolic Activation: RAT, LIVER, S-9, AROCLOR 1254 (10%), Method: STANDARD PLATE) is “inactive; negative”; the mutagenic call (Test System: MOUSE LYMPHOMA, Strain/Indicator: L5178Y (TK+/TK-), Metabolic Activation: NONE, Method: SUSPENSION/PLATE) was “inactive; negative. reevaluation of results: negative”; the mutagenic call (Test System: MOUSE LYMPHOMA, Strain/Indicator: L5178Y (TK+/TK-), Metabolic Activation: RAT, LIVER, S-9, AROCLOR 1254, Method: SUSPENSION/PLATE) is “inactive; negative. reevaluation of results: negative”.

Source of the values: PubChem BioAssay AID1259407 (Chemical Carcinogenesis Research Information System (CCRIS), 2018).
